“And” between values parts separate entries of the source, which are not always exact repeats. Equal entries are not always repeated.
System: rat primary hepatocytes
Assay: Metabolic disposition of [^14C]-Compound 1 and [^14C]-2′-C-methyl guanosine in rat primary hepatocytes (incubation medium, cellular extracts, nucleotide levels)
Type: in vitro ADME, Sprague Dawley rat
Conditions: for AUC (area under the concentration-time curve) of Compound 7 levels: 0-24 h
Method: Primary hepatocytes: Freshly isolated cells from animal and human liver were obtained in suspension on ice. Cells were pelleted by centrifugation at 70-75×g (rat) or 95-90×g (monkey and human) and resuspended at 0.8 million cells per mL of platting medium (William's E supplemented with 5% FBS, 0.5% penicillin-streptomycin, 1% L-glutamine, 4 μg/mL insulin and 1 μM dexamethasone). Multi-well collagen I-coated plates (rat tail collagen type I; 12- or 6-well) were then seeded by addition of 1 mL (12-well; 0.8 million cells/well) or 2 mL (6-well; 1.6 million cells/well) of cell suspension. The plates were gently shaken to evenly distribute the cells and placed in an incubator at 37° C. for approximately 4 to 6 hours to allow cells to attach. Once cells were attached, the platting medium was removed and replaced with hepatocyte culture medium (William's E supplemented with penicillin-streptomycin, 1% L-glutamine, 1% insulin-transferrin-selenium and 0.1 μM dexamethasone). Cells were left overnight in an incubator at 37° C. to acclimatize to culture and the medium.
Hepatocyte incubations with radiolabeled Compound 1 and 2′-C-methyl guanosine, both labeled in the C-8 position of the guanine moiety, were conducted at a final volume of 2.0 mL hepatocyte culture medium/well ([…]). Culture medium from overnight incubation of cells was removed and replaced with fresh medium, pre-warmed to 37° C., containing 1 or 10 μM [^14C]-Compound 1 ([…]) or [^14C]-2′-C-methyl guanosine (127 DPM/μmol) from a stock solution in DMSO (final DMSO concentration was 0.1%) or 50% ethanol (final ethanol concentration was 0.2%). After 1, 4, 8 and 24 hours, 0.5-1.0 mL of incubation medium was removed and stored at −20° C. until analysis (described below). The remaining medium was discarded and cell monolayers were carefully washed two times with ice-cold PBS. Following the last wash, all PBS was carefully removed and 1.0 mL of extraction solution (ice-cold 70% methanol) added. Cells were scrapped off and suspended in the extraction solution, transferred to 2 mL polypropylene microfuge tubes and intracellular contents extracted overnight at −20° C.
Preliminary identification of putative metabolites was conducted by comparing the retention time of observed metabolites in incubation medium and cellular extracts with retention times obtained with chemically synthesized standards using the chromatography conditions described below. Further identification of 2′-C-methyl guanosine nucleotides (mono-, di- and triphosphate) was carried out by incubating cellular extract samples with alkaline phosphatase (10 units for 60 min at 37° C.) and comparing the HPLC retention times of the resulting nucleosides with that of authentic 2′-C-methyl guanosine.
Cellular extracts were prepared by centrifugation at 16,000 RCF using an Eppendorf microcentrifuge (Eppendorf, Model 5415D) for 10 min to remove cellular debris. An aliquot of 5-10 μL of the supernatant was added to 5 mL of EcoLite™ (MP, Irvine, Calif.) liquid scintillation cocktail and radioactivity measured by liquid scintillation counting (LSC) using a Beckman Coulter LS6500 multipurpose liquid scintillation counter (Beckman Instruments, Fullerton, Calif.). The remaining sample was then dried using a Labconco refrigerated centrivap concentrator (Labconco, Kansas City, Mo.). Dry extracts were reconstituted in 120 μL of HPLC-grade water and centrifuged at 16,000 RCF using an Eppendorf microcentrifuge for 10 min. Prior to HPLC analysis (described below), radioactivity of the concentrated extracts was measured by LSC using 5 μL aliquots. Extraction recovery was then determined by comparing total radioactivity in extracts before and after drying. The remaining extract was then analyzed by HPLC with online radioactivity detection using a Flow Scintillation Analyzer Radiomatic™ 515TR. Radioactivity in the separated components was quantified by integrating the peaks using Flo-One™ Software (Perkin Elmer Life Sciences). […]

[1] = rat hepatocytes (Rs458), 1 μM [^14C]-Compound 1, 1 h
[2] = rat hepatocytes (Rs458), 1 μM [^14C]-Compound 1, 8 h
[3] = rat hepatocytes (Rs458), 1 μM [^14C]-Compound 1, 24 h
[4] = rat hepatocytes Rs448, 10 μM [^14C]-2′-C-methyl guanosine, 1 h
[5] = rat hepatocytes Rs448, 10 μM [^14C]-2′-C-methyl guanosine, 4 h
[6] = rat hepatocytes Rs448, 10 μM [^14C]-2′-C-methyl guanosine, 8 h
[7] = rat hepatocytes Rs448, 10 μM [^14C]-2′-C-methyl guanosine, 24 h
[8] = rat hepatocytes Rs458, 1 μM [^14C]-2′-C-methyl guanosine, 1 h
[9] = rat hepatocytes Rs458, 1 μM [^14C]-2′-C-methyl guanosine, 8 h
[10] = rat hepatocytes Rs458, 1 μM [^14C]-2′-C-methyl guanosine, 24 h
[11] = rat hepatocytes Rs458, 10 μM [^14C]-2′-C-methyl guanosine, 1 h
[12] = rat hepatocytes Rs458, 10 μM [^14C]-2′-C-methyl guanosine, 4 h
[13] = rat hepatocytes Rs458, 10 μM [^14C]-2′-C-methyl guanosine, 8 h
[14] = rat hepatocytes Rs458, 10 μM [^14C]-2′-C-methyl guanosine, 24 h

## C[C@@]1(O)[C@H](O)[C@@H](COP(=O)(O)OP(=O)(O)OP(=O)(O)O)O[C@H]1n1cnc2c(=O)[nH]c(N)nc21 [Compound 7, [(2R)-2-methyl-β-D-ribofuranosyl]guanine 5′-triphosphate]
Rat hepatocytes (Rs448, Rs458), 10 μM [^14C]-Compound 1, 1 h, listed as Compd 7
  metabolites observed in cellular extracts (% of total radioactivity): 59.0% and 50.8%
Rat hepatocytes (Rs448, Rs458), 10 μM [^14C]-Compound 1, 4 h, listed as Compd 7
  metabolites observed in cellular extracts (% of total radioactivity): 70.9% and 69.1%
Rat hepatocytes (Rs448, Rs458), 10 μM [^14C]-Compound 1, 8 h, listed as Compd 7
  metabolites observed in cellular extracts (% of total radioactivity): 73.0% and 72.5%
Rat hepatocytes (Rs448, Rs458), 10 μM [^14C]-Compound 1, 24 h, listed as Compd 7
  metabolites observed in cellular extracts (% of total radioactivity): 66.2% and 54.5%
[1]
  2′-C-methyl guanosine nucleotide levels in cellular extracts: 80.0 pmol/million cells
  metabolites observed in cellular extracts (% of total radioactivity): 50.5%
[2]
  2′-C-methyl guanosine nucleotide levels in cellular extracts: 238 pmol/million cells
  metabolites observed in cellular extracts (% of total radioactivity): 77.6%
[3]
  2′-C-methyl guanosine nucleotide levels in cellular extracts: 103 pmol/million cells
  metabolites observed in cellular extracts (% of total radioactivity): 62.1%
Rat hepatocytes (n=1), 1 μM [^14C]-2′-C-methyl guanosine
  Compound 7 AUC0-24h: 458 pmol*h/million cells
Rat hepatocytes (n=1), 1 μM [^14C]-Compound 1
  Compound 7 AUC0-24h: 3,881 pmol*h/million cells
Rat hepatocytes Rs448, 10 μM [^14C]-2′-C-methyl guanosine, 0 h
  2′-C-methyl guanosine nucleotide levels in cellular extracts: 0 pmol/million cells
Rat hepatocytes Rs448, 10 μM [^14C]-2′-C-methyl guanosine
  AUC (area under the concentration-time curve) of Compound 7 levels: 5906 pmol * hr/million cells
[4]
  2′-C-methyl guanosine nucleotide levels in cellular extracts: 28.0 pmol/million cells
  Major metabolites observed in cellular extracts (% of total radioactivity): 5.21 % of total radioactivity
[5]
  2′-C-methyl guanosine nucleotide levels in cellular extracts: 141 pmol/million cells
  Major metabolites observed in cellular extracts (% of total radioactivity): 17.9 % of total radioactivity
[6]
  2′-C-methyl guanosine nucleotide levels in cellular extracts: 258 pmol/million cells and 287 pmol/million cells
  Major metabolites observed in cellular extracts (% of total radioactivity): 24.1 % of total radioactivity
[7]
  2′-C-methyl guanosine nucleotide levels in cellular extracts: 347 pmol/million cells
  Major metabolites observed in cellular extracts (% of total radioactivity): 35.6 % of total radioactivity
Rat hepatocytes Rs448, 10 μM [^14C]-Compound 1, 0 h
  2′-C-methyl guanosine nucleotide levels in cellular extracts: 0 pmol/million cells
Rat hepatocytes Rs448, 10 μM [^14C]-Compound 1
  AUC (area under the concentration-time curve) of Compound 7 levels: 31568 pmol * hr/million cells
Rat hepatocytes Rs448, 10 μM [^14C]-Compound 1, 1 h
  2′-C-methyl guanosine nucleotide levels in cellular extracts: 580 pmol/million cells
Rat hepatocytes Rs448, 10 μM [^14C]-Compound 1, 4 h
  2′-C-methyl guanosine nucleotide levels in cellular extracts: 1429 pmol/million cells
Rat hepatocytes Rs448, 10 μM [^14C]-Compound 1, 8 h
  2′-C-methyl guanosine nucleotide levels in cellular extracts: 1791 pmol/million cells
Rat hepatocytes Rs448, 10 μM [^14C]-Compound 1, 24 h
  2′-C-methyl guanosine nucleotide levels in cellular extracts: 937 pmol/million cells
Rat hepatocytes Rs458, 1 μM [^14C]-2′-C-methyl guanosine
  AUC (area under the concentration-time curve) of Compound 7 levels: 458 pmol * hr/million cells
[8]
  2′-C-methyl guanosine nucleotide levels in cellular extracts: 2.60 pmol/million cells
  Major metabolites observed in cellular extracts (% of total radioactivity): 4.56 % of total radioactivity
[9]
  2′-C-methyl guanosine nucleotide levels in cellular extracts: 20.1 pmol/million cells
  Major metabolites observed in cellular extracts (% of total radioactivity): 26.1 % of total radioactivity
[10]
  2′-C-methyl guanosine nucleotide levels in cellular extracts: 27.0 pmol/million cells
  Major metabolites observed in cellular extracts (% of total radioactivity): 34.1 % of total radioactivity
Rat hepatocytes Rs458, 1 μM [^14C]-Compound 1
  AUC (area under the concentration-time curve) of Compound 7 levels: 3881 pmol * hr/million cells
Rat hepatocytes Rs458, 10 μM [^14C]-2′-C-methyl guanosine, 0 h
  2′-C-methyl guanosine nucleotide levels in cellular extracts: 0 pmol/million cells
Rat hepatocytes Rs458, 10 μM [^14C]-2′-C-methyl guanosine
  AUC (area under the concentration-time curve) of Compound 7 levels: 5384 pmol * hr/million cells
[11]
  2′-C-methyl guanosine nucleotide levels in cellular extracts: 23.0 pmol/million cells
  Major metabolites observed in cellular extracts (% of total radioactivity): 4.42 % of total radioactivity
[12]
  2′-C-methyl guanosine nucleotide levels in cellular extracts: 113 pmol/million cells
  Major metabolites observed in cellular extracts (% of total radioactivity): 16.2 % of total radioactivity
[13]
  2′-C-methyl guanosine nucleotide levels in cellular extracts: 239 pmol/million cells
  Major metabolites observed in cellular extracts (% of total radioactivity): 27.0 % of total radioactivity
[14]
  2′-C-methyl guanosine nucleotide levels in cellular extracts: 319 pmol/million cells
  Major metabolites observed in cellular extracts (% of total radioactivity): 33.9 % of total radioactivity
Rat hepatocytes Rs458, 10 μM [^14C]-Compound 1, 0 h
  2′-C-methyl guanosine nucleotide levels in cellular extracts: 0 pmol/million cells
Rat hepatocytes Rs458, 10 μM [^14C]-Compound 1
  AUC (area under the concentration-time curve) of Compound 7 levels: 28123 pmol * hr/million cells
Rat hepatocytes Rs458, 10 μM [^14C]-Compound 1, 1 h
  2′-C-methyl guanosine nucleotide levels in cellular extracts: 534 pmol/million cells
Rat hepatocytes Rs458, 10 μM [^14C]-Compound 1, 4 h
  2′-C-methyl guanosine nucleotide levels in cellular extracts: 1347 pmol/million cells
Rat hepatocytes Rs458, 10 μM [^14C]-Compound 1, 8 h
  2′-C-methyl guanosine nucleotide levels in cellular extracts: 1618 pmol/million cells
Rat hepatocytes Rs458, 10 μM [^14C]-Compound 1, 24 h
  2′-C-methyl guanosine nucleotide levels in cellular extracts: 770 pmol/million cells
Rat hepatocytes, 1 μM [^14C]-Compound 1
  Compound 7 maximal levels: 103 pmol/million cells
Rat hepatocytes, 10 μM [^14C]-2′-C-methyl guanosine, at 24 hours
  Maximum Compound 7 levels: 249 pmol/million cells
Rat hepatocytes, 10 μM [^14C]-Compound 1
  Compound 7 AUC0-24h: 29,846 pmol*h/million cells
Rat hepatocytes, 10 μM [^14C]-Compound 1, at 8 hours
  Compound 7 maximum levels: 1,705 pmol/million cells
